Test results taken from PMC6597290 (Nature, 2019).

Legend:
BT4096 = target: T1, BT4096 (Bacteroides thetaiotaomicron, UniProt Q8A0C5); test: LC-MS time course of deacetylation; assay type: biochemical; details: Tris-HCl 10 mM pH 7, 2.5 mM MgSO4 and Mn, 37 °C; 0-250 µM substrate
T1 sequence (Q8A0C5 21-460): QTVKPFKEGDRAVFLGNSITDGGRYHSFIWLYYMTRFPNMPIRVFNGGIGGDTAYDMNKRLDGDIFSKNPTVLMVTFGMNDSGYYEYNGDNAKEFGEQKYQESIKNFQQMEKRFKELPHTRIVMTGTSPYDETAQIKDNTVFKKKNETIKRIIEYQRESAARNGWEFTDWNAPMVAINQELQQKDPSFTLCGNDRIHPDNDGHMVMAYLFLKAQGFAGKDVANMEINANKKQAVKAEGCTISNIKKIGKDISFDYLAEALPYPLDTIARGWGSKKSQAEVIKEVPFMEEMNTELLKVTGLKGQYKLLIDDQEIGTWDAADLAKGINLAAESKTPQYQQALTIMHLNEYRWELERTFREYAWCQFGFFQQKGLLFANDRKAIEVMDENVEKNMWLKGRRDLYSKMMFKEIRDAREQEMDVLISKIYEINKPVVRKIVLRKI

BT2068 = target: T2, BT2068 (Bacteroides thetaiotaomicron, UniProt Q8A618); test: LC-MS drug depletion by E. coli expressing bt2068; assay type: cell-based; details: whole E. coli cells, anaerobic, 37 °C
T2 sequence (Q8A618 1-253): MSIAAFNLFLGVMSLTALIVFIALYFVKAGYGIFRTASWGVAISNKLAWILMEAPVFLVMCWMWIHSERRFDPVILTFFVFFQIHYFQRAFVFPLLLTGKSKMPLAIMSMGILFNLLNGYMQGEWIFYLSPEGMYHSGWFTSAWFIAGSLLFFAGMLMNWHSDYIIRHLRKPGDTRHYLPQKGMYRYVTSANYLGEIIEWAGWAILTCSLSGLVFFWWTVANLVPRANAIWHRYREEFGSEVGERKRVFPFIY

| SMILES | LC-MS time course of deacetylation (BT4096) | LC-MS drug depletion by E. coli expressing bt2068 (BT2068) |
| --- | --- | --- |
| CNCCN1C(=O)[C@H](OC(C)=O)[C@H](c2ccc(OC)cc2)Sc2ccccc21 [N-desmethyldiltiazem] | BT4096 also deacetylates N-desmethyldiltiazem |  |
| COc1ccc([C@@H]2Sc3ccccc3N(CCN(C)C)C(=O)[C@@H]2OC(C)=O)cc1 [diltiazem] | demonstrated that the purified enzyme catalyzes the drug transformation (Fig. 3c) |  |
| C#C[C@]1(O)CC[C@H]2[C@@H]3CCC4=CC(=O)CC[C@@H]4[C@H]3CC[C@@]21CC [levonorgestrel] |  | BT2068 also metabolizes the structurally related compounds levonorgestrel and progesterone |
| CC(=O)[C@H]1CC[C@H]2[C@@H]3CCC4=CC(=O)CC[C@]4(C)[C@H]3CC[C@]12C [progesterone] |  | BT2068 also metabolizes the structurally related compounds levonorgestrel and progesterone |
